Consider three compounds from patent US20230381270A1, “PHARMACEUTICAL COMBINATIONS FOR TREATING CANCER” (POLYPHOR AG, priority 2017, published 2023).

Read-outs that look alike come from different tables or passages of the source.

One series has as its system metastatic breast cancer. To be noted: cited from earlier work.
Series [1] in a line: Phase I trial of eribulin + POL6326: safety and tolerability (adverse events). It counts as in vivo, human. The settings on record: balixafortide-related; most frequent during Day 1, Cycle 1. The text has this:
This open-label, single-arm, non-randomised Phase I, dose escalation trial enrolled HER2-negative (any oestrogen or progesterone receptor status) females age […] years with histologically confirmed invasive breast cancer, stage IV disease (American Joint Committee on Cancer criteria), evidence of tumour cell CXCR4 expression by immunohistochemistry on tumour tissue (archival primary tumour, metastatic tissue, or from a fresh biopsy), and at least one measurable lesion according to Response Evaluation Criteria in Solid Tumours (RECIST) 1.1 criteria. Patients had previously received […] chemotherapy regimens for metastatic breast cancer (MBC). Patients with hormone receptor positive status must have failed at least one endocrine therapy or be considered unsuitable for endocrine therapy. Eligibility criteria also included an Eastern Cooperative Oncology Group performance status of 0 or 1. This phase I study investigates the combination of eribulin with POL6326 in relapsed metastatic breast cancer. The primary objectives are the safety, tolerability, and pharmacokinetics (PK) of this combination therapy, as well as the maximum tolerated dose (MTD) and recommended phase 2 dose (RP2D) of POL6326 when added to eribulin. Efficacy, as measured by tumor response, was additionally assessed.
Treatment cycles of 21 days each. […]

The target of a further series is human CXCR4 receptor (Homo sapiens, UniProt P61073). Put plainly: In vitro receptor binding studies. The text has this:
(§1) Cyclo(-Tyr-His-Ala-Cys-Ser-Ala-^DPro-Dab-Arg-Tyr-Cys-Tyr-Gln-Lys-^DPro-Pro-) having a disulfide bond between Cys4 and Cys11 is also referred as POL6326 herein or balixafortide. POL6326 is a cyclic synthetic peptide consisting of 16 amino acids and an antagonist of the highly conserved chemokine receptor CXCR4 and is being developed as an IV treatment in combination with chemotherapy in patients with leukemias (autologous transplantation).

Series [2] has as its system other potential target receptors. Put plainly: In vitro receptor binding studies, other receptors.
Source text: as §1

For a further series, the system named is advanced cancer. To be noted: monotherapy (Galsky 2014); cited from earlier work.
The mark [3] stands for this setting: Phase II study, eribulin alone (Cortes et al 2010).
Setting [4] is: Phase II study, eribulin alone (Vandat et al 2009).
Setting [5] is: relapsed mBC patients in 3rd line and beyond, published data.

Chain of human CXCR4 receptor (P61073 whole entry): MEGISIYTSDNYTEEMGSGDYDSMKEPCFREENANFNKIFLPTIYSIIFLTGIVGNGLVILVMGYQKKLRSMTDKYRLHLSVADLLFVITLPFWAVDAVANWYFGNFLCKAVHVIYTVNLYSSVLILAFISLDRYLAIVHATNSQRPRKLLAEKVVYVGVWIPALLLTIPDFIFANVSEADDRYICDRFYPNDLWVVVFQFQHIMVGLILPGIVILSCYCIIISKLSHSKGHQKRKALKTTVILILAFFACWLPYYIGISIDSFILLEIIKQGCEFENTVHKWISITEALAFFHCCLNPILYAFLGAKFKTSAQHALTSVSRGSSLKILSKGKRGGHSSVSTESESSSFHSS

Consider `C=C1C[C@@H]2CC[C@@]34C[C@H]5O[C@H]6[C@@H](O3)[C@H]3O[C@H](CC[C@@H]3O[C@H]6[C@H]5O4)CC(=O)C[C@@H]3[C@@H](OC)[C@@H](C[C@H](O)CN)O[C@H]3C[C@H]3O[C@@H](CC[C@@H]1O2)C[C@@H](C)C3=C` [eribulin, 2-(3-amino-2-hydroxypropyl)hexacosahydro-3-methoxy-26-methyl-20,27-bis(methylene)11,15-18,21-24,28-triepoxy-7,9-ethano-12,15-methano-9H,15H-furo (3,2-i)furo(2′,3′-5,6)pyrano (4,3-b)(1,4)dioxacyclopentacosin-5-(4H)-one], for which the figures for the CBR in the series with metastatic breast cancer (setting [3]) and in the series with metastatic breast cancer (setting [4]) were 17.1% and 17.2%, respectively. The ORR is reported as 9% with metastatic breast cancer (setting [3]); 11.5% with metastatic breast cancer (setting [4]); 12% with metastatic breast cancer (randomised Phase III trial (EMBRACE, Cortes 2011)); 11% in the series on metastatic breast cancer (randomised Phase III trial (Kaufman 2015)). In the series with metastatic breast cancer (eribulin alone, published trials recruiting similar patients), the mPFS was 2.6-4.1 months. Further, in the series on metastatic breast cancer (eribulin alone, reported), the “One year OS” value is given as 53.9%. Further, the “overall survival (OS)” value with metastatic breast cancer (setting [5]) was 13.1 months. In the series with metastatic breast cancer (setting [5]), the “progression-free survival (PFS)” value is on record as 3.7 months.

On to “Cyclo(-Tyr-His-Ala-Cys-Ser-Ala-^DPro-Dab-Arg-Tyr-Cys-Tyr-Gln-Lys-^DPro-Pro-) having a disulfide bond between Cys4 and Cys11 [POL6326]”, for which the “infusion-related reactions (IRRs)” value in series [1] is listed as “the majority were low grade”. Moreover, at human CXCR4 receptor, the “affinity for the human CXCR4 receptor” value is on record as “significant affinity”. Also, in series [2], the “binding to other potential target receptors” value is listed as “general lack of significant binding”.

As for LY2510924, the DLT entry with advanced cancer is reported as “abnormal neutrophil count”.
